Measured values as given in ChEMBL document CHEMBL5143716, “Design, Synthesis, and Optimization of Macrocyclic Peptides as Species-Selective Antimalaria Proteasome Inhibitors” (J Med Chem, 2022).
Values after ≈ are worked out from the molar mass of the structure shown.

Legend:
[1] = Kinetic solubility of compound in PBS at pH 6.8 incubated for 24 hrs by UPLC/MS analysis; assay type: physicochemical; settings: read-out: Kinetic_solubility
[2] = Permeability of the compound in PRISMA HT buffer at pH 7.4 at 10 uM incubated for 3 hrs by PAMPA based LC/MS/MS analysis; assay type: ADME; settings: read-out: permeability
human MDR1 (P-gp) = experiment: Apparent permeability across apical to basolateral side in pig LLC-PK1 cells expressing human MDR1 at 10 uM measured after 60 mins by LC/MS/MS analysis; assay type: ADME, cell-based, Sus scrofa
[3] = AUC in mouse at […], iv administered as cassette dose; assay type: ADME, organism-based; parameters: dose 0.25 mg/kg, route iv; settings: in vivo
[4] = Hepatic blood flow in mouse at […], iv administered as cassette dose; assay type: ADME, organism-based; settings: in vivo, dose 0.25 mg/kg

| solubility kinetic at 24 h [1] [mg/mL] | Papp at 3 h, 10 µM [2] [nm/s] | Papp A→B at 1 h, 10 µM (human MDR1 (P-gp)) [nm/s] | AUC [3] [ng·h/mL] | QH [4] [L/h/kg] | Structure (SMILES) |
| --- | --- | --- | --- | --- | --- |
| 0.049 (≈ 85.3 µM) | 103 | 68 |  |  | O=C(NCC1CC1)[C@@H]1CCCCOc2cccc(c2)C[C@H](N2CCCC2=O)C(=O)N[C@@H](CCc2ccccc2)C(=O)N1 |
| 0.017 (≈ 28 µM) | 212 | 45 |  |  | O=C(NC1CCCC1)[C@@H]1CCCCOc2cccc(c2)C[C@H](N2CCCC2=O)C(=O)N[C@@H](CCc2ccc(F)cc2)C(=O)N1 |
| 0.076 (≈ 126 µM) | 187 | 53 | 0.6 | 5.6 | O=C(NCC(F)(F)F)[C@@H]1CCCCOc2cccc(c2)C[C@H](N2CCCC2=O)C(=O)N[C@@H](CCc2ccccc2)C(=O)N1 |
| > 0.14 |  | > 2 |  |  | O=C(NC1CCCC1)[C@@H]1CCCCOc2cccc(c2)C[C@H](N2CCC2)C(=O)N[C@@H](CCN2CCOCC2)C(=O)N1 |
| 0.068 (≈ 122 µM) | 89 | > 28 |  |  | O=C(NC1CCCC1)[C@@H]1CCCCOc2cccc(c2)CC2(COC2)C(=O)N[C@@H](CCN2CCOCC2)C(=O)N1 |
| 0.09 (≈ 166 µM) | 269 | 35 |  |  | CC1(C)Cc2cccc(c2)OCCCC[C@@H](C(=O)NC2CCCC2)NC(=O)[C@H](CCN2CCOCC2)NC1=O |
| > 0.13 | 15 | > 2 |  |  | O=C(NC1CCCC1)[C@@H]1CCCCOc2cccc(c2)C[C@H](N2CCCC2=O)C(=O)N[C@@H](CCN2CCOCC2)C(=O)N1 |
| 0.035 (≈ 59.9 µM) | 72 | > 11 |  |  | O=C(NCC(F)F)[C@@H]1CCCCOc2cccc(c2)C[C@H](N2CCCC2=O)C(=O)N[C@@H](CCc2ccccc2)C(=O)N1 |
| < 0.13 | 120 |  |  |  | O=C(NCC(F)(F)F)[C@@H]1COCCOc2cccc(c2)C[C@H](N2CCCC2=O)C(=O)N[C@@H](CCc2ccccc2)C(=O)N1 |
| > 0.12 | 11 | > 6 |  |  | Cn1cc(CNC(=O)[C@@H]2CCCCOc3cccc(c3)C[C@H](N3CCCC3=O)C(=O)N[C@@H](CCc3ccccc3)C(=O)N2)cn1 |
| 0.1 (≈ 170 µM) | 151 | 57 |  |  | O=C(NC1CCCC1)[C@@H]1CCCCOc2cccc(c2)C[C@H](N2CCCC2=O)C(=O)N[C@@H](CCc2ccccc2)C(=O)N1 |
| > 0.13 | 20 | 1.2 |  |  | CN(C)[C@H]1Cc2cccc(c2)OCCCC[C@@H](C(=O)NC2CCCC2)NC(=O)[C@H](CCN2CCOCC2)NC1=O |
| 0.02 (≈ 33.9 µM) | 208 |  |  |  | O=C(NC1CCCC1)[C@@H]1CCCCOc2cccc(c2)C[C@H](N2CCCC2=O)C(=O)N[C@@H](COc2ccccc2)C(=O)N1 |
| < 0.0014 |  | > 0.77 |  |  | CC(=O)N[C@H]1Cc2cccc(c2)Oc2cccc(c2)C[C@@H](C(=O)NCC(F)(F)F)NC(=O)[C@H](CCc2ccccc2)NC1=O |
| 0.002 (≈ 3.26 µM) | 82 | > 21 |  |  | O=C1N[C@H](c2nnc(C(F)(F)F)[nH]2)CCCCOc2cccc(c2)C[C@H](N2CCCC2=O)C(=O)N[C@H]1CCc1ccccc1 |
| 0.0062 (≈ 10.1 µM) | 160 | 11 |  |  | O=C1N[C@H](c2nnc(C(F)(F)F)o2)CCCCOc2cccc(c2)C[C@H](N2CCCC2=O)C(=O)N[C@H]1CCc1ccccc1 |
| > 0.13 | 133 | 40 |  |  | O=C(NC1CCCC1)[C@@H]1CCCCOc2cccc(c2)C[C@H](N2CCCC2=O)C(=O)N[C@@H](CCN2CCC(F)(F)CC2)C(=O)N1 |
| > 0.14 |  | > 2 |  |  | CN[C@H]1Cc2cccc(c2)OCCCC[C@@H](C(=O)NC2CCCC2)NC(=O)[C@H](CCN2CCOCC2)NC1=O |
| 0.031 (≈ 49.3 µM) | 145 | 44 |  |  | O=C(NC1(C(F)(F)F)CC1)[C@@H]1CCCCOc2cccc(c2)C[C@H](N2CCCC2=O)C(=O)N[C@@H](CCc2ccccc2)C(=O)N1 |
|  | 22 | > 34 |  |  | CC(=O)N[C@H]1Cc2cccc(c2)Oc2cccc(c2)C[C@@H](C(=O)NCc2ccc(C)cc2)NC(=O)[C@H](CCc2ccccc2)NC1=O |

| Structure (SMILES) | solubility kinetic at 24 h [1] [mg/mL] | Papp at 3 h, 10 µM [2] [nm/s] | Papp A→B at 1 h, 10 µM (human MDR1 (P-gp)) [nm/s] | AUC [3] [ng·h/mL] | QH [4] [L/h/kg] |
| --- | --- | --- | --- | --- | --- |
| Cc1ccc(CNC(=O)[C@@H]2Cc3cccc(c3)Oc3cccc(c3)C[C@H](N)C(=O)N[C@@H](CCc3ccccc3)C(=O)N2)cc1 | < 0.0016 |  | > 2.9 |  |  |
| O=C(NCC(F)(F)F)[C@@H]1Cc2cccc(c2)Oc2cccc(c2)C[C@H](N2CCCC2=O)C(=O)N[C@@H](CCc2ccccc2)C(=O)N1 | 0.0038 (≈ 5.97 µM) |  |  |  |  |
